Experimental findings from PubChem BioAssay AID270 (DTP/NCI, 2004) are described below.

The subject of the assay is BDF1 mice, s.c. Lewis lung carcinoma, T/C %. As to the kind of experiment: NCI In Vivo Anticancer Drug Screen. Data for tumor model Lewis Lung Carcinoma (subcutaneous) in B6D2F1 (BDF1) mice. The procedure, abridged: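 Readout: survival or tumor size, expressed as treated (T) over vehicle control (C). Transplantable tumor implanted in mice; compound given to the treated group.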

[1] abbreviates: endpoint: mean tumor weight, dose: 25.0 mg/kg/injection, schedule: Q01DX011 (ip), vehicle: saline, higher = larger tumour.

Several values for one entry are separate records, joined by “and”; a condition that tells them apart may be missing. Equal values may be shown once. Inconclusive results are not listed.

Consider `CC(=O)O[C@H]1C(=O)[C@@]2(C)[C@H]([C@H](OC(=O)c3ccccc3)[C@]3(O)C[C@H](OC(=O)[C@H](O)[C@@H](NC(=O)c4ccccc4)c4ccccc4)C(C)=C1C3(C)C)[C@]1(OC(C)=O)CO[C@@H]1C[C@@H]2O`, for which the T/C was 112 % of control (endpoint: median survival time, dose: 4.0 mg/kg/injection, schedule: Q01DX009 (ip), vehicle: Klucel (hydroxypropylcellulose) (HPC), higher = longer survival); 109 % of control (endpoint: median survival time, dose: 6.0 mg/kg/injection, schedule: Q01DX009 (ip), vehicle: Klucel (hydroxypropylcellulose) (HPC), higher = longer survival); 94 % of control (endpoint: median survival time, dose: 11.0 mg/kg/injection, schedule: Q04DX003 (ip), vehicle: Klucel (hydroxypropylcellulose) (HPC), higher = longer survival); 107 % of control (endpoint: median survival time, dose: 13.0 mg/kg/injection, schedule: Q01DX001 (ip), vehicle: Klucel (hydroxypropylcellulose) (HPC), higher = longer survival); 109 % of control (endpoint: median survival time, dose: 16.0 mg/kg/injection, schedule: Q04DX003 (ip), vehicle: Klucel (hydroxypropylcellulose) (HPC), higher = longer survival); 99 % of control (endpoint: median survival time, dose: 20.0 mg/kg/injection, schedule: Q01DX001 (ip), vehicle: Klucel (hydroxypropylcellulose) (HPC), higher = longer survival). For the same compound, the T/C (endpoint: median survival time, dose: 30.0 mg/kg/injection, schedule: Q01DX001 (ip), vehicle: Klucel (hydroxypropylcellulose) (HPC), higher = longer survival) is 101 % of control.
Regarding `CCCn1cnc2c(SCc3ccccc3Cl)nc(N)nc21`, the T/C was 66 % of control (endpoint: mean tumor weight, dose: 25.0 mg/kg/injection, schedule: Q01DX011 (ip), vehicle: other, higher = larger tumour); 102 % of control (endpoint: mean tumor weight, dose: 50.0 mg/kg/injection, schedule: Q01DX011 (ip), vehicle: other, higher = larger tumour); 89 % of control (endpoint: mean tumor weight, dose: 100.0 mg/kg/injection, schedule: Q01DX011 (ip), vehicle: other, higher = larger tumour); 65 % of control (endpoint: mean tumor weight, dose: 200.0 mg/kg/injection, schedule: Q01DX011 (ip), vehicle: other, higher = larger tumour).
Regarding `O=S(=O)(O)O.[NH-]CC1(C[NH-])CCCCC1.[Pt+2]`, the T/C (endpoint: median survival time, dose: 6.0 mg/kg/injection, schedule: Q04DX003 (ip), vehicle: other, higher = longer survival) was 100 % of control.
For the compound `O=C(O)c1c2c(nc3ccccc13)Cc1ccccc1-2`, the T/C by setting is: (endpoint: median survival time, dose: 50.0 mg/kg/injection, schedule: Q01DX009 (ip), vehicle: Klucel (hydroxypropylcellulose) (HPC), higher = longer survival) 99 % of control; (endpoint: median survival time, dose: 100.0 mg/kg/injection, schedule: Q01DX009 (ip), vehicle: Klucel (hydroxypropylcellulose) (HPC), higher = longer survival) 109 % of control; (endpoint: median survival time, dose: 200.0 mg/kg/injection, schedule: Q01DX009 (ip), vehicle: Klucel (hydroxypropylcellulose) (HPC), higher = longer survival) 109 % of control.
As to `CC/C(C)=C1\OC(=O)C(C)C(O)C(Cc2cccnc2)NC(=O)C(NC(=O)c2ncccc2O)C(C)OC1=O` (configuration not stated), the T/C (endpoint: median survival time, dose: 6.25 mg/kg/injection, schedule: Q01DX009 (ip), vehicle: saline with Tween-80, higher = longer survival) was 92 % of control and the T/C (endpoint: median survival time, dose: 12.5 mg/kg/injection, schedule: Q01DX009 (ip), vehicle: saline with Tween-80, higher = longer survival) was 98 % of control.
For the compound `c1cn[nH]c1`, the T/C (endpoint: mean tumor weight, dose: 20.0 mg/kg/injection, schedule: Q01DX011 (ip), vehicle: water, higher = larger tumour) is 54 % of control; the T/C (endpoint: mean tumor weight, dose: 40.0 mg/kg/injection, schedule: Q01DX011 (ip), vehicle: water, higher = larger tumour) is 45 % of control; the T/C (endpoint: mean tumor weight, dose: 80.0 mg/kg/injection, schedule: Q01DX011 (ip), vehicle: water, higher = larger tumour) was 32 % of control.
Regarding `CN(C)c1ccc(-c2cc[n+](C)cc2)cc1`, the T/C runs as follows: (endpoint: median survival time, dose: 0.5 mg/kg/injection, schedule: Q01DX009 (ip), vehicle: saline, higher = longer survival) 103 % of control; (endpoint: median survival time, dose: 1.0 mg/kg/injection, schedule: Q01DX009 (ip), vehicle: saline, higher = longer survival) 114 % of control; (endpoint: median survival time, dose: 2.0 mg/kg/injection, schedule: Q01DX009 (ip), vehicle: saline, higher = longer survival) 119 % of control; (endpoint: median survival time, dose: 3.0 mg/kg/injection, schedule: Q01DX009 (ip), vehicle: saline, higher = longer survival) 106 % of control; (endpoint: median survival time, dose: 6.0 mg/kg/injection, schedule: Q01DX009 (ip), vehicle: saline, higher = longer survival) 103 % of control.
Turning to `CCCCCC[C@@H](O)C/C=C\CCCCCCCC(=O)O`, the T/C is, setting by setting: under setting [1], 104 % of control; (endpoint: mean tumor weight, dose: 50.0 mg/kg/injection, schedule: Q01DX011 (ip), vehicle: saline, higher = larger tumour) 77 % of control; (endpoint: mean tumor weight, dose: 100.0 mg/kg/injection, schedule: Q01DX011 (ip), vehicle: saline, higher = larger tumour) 59 % of control.
In the case of `Cc1c(C)c2c(c(C)c1O)CCC(C)(CCCC(C)CCCC(C)CCCC(C)C)O2` (configuration not stated), the T/C runs as follows: (endpoint: median survival time, dose: 12.5 mg/kg/injection, schedule: Q02DX009 (ip), vehicle: olive oil, sesame oil, peanut oil, higher = longer survival) 116 % of control; (endpoint: median survival time, dose: 25.0 mg/kg/injection, schedule: Q02DX009 (ip), vehicle: olive oil, sesame oil, peanut oil, higher = longer survival) 100 % of control; (endpoint: median survival time, dose: 50.0 mg/kg/injection, schedule: Q02DX009 (ip), vehicle: olive oil, sesame oil, peanut oil, higher = longer survival) 108 % of control; (endpoint: median survival time, dose: 100.0 mg/kg/injection, schedule: Q02DX009 (ip), vehicle: olive oil, sesame oil, peanut oil, higher = longer survival) 104 % of control; (endpoint: median survival time, dose: 200.0 mg/kg/injection, schedule: Q02DX009 (ip), vehicle: olive oil, sesame oil, peanut oil, higher = longer survival) 122 % of control; (endpoint: median survival time, dose: 400.0 mg/kg/injection, schedule: Q02DX009 (ip), vehicle: olive oil, sesame oil, peanut oil, higher = longer survival) 118 % of control.
For `COc1ccc(-c2cc(=O)c3c(O)c(OC)c(OC)c(OC)c3o2)cc1`, the T/C (endpoint: mean tumor weight, dose: 12.5 mg/kg/injection, schedule: Q01DX011 (ip), vehicle: saline, higher = larger tumour) is 95 % of control; the T/C under setting [1] was 100 % of control; the T/C (endpoint: mean tumor weight, dose: 50.0 mg/kg/injection, schedule: Q01DX011 (sc), vehicle: steriod suspending solution, higher = larger tumour) is 63 % of control; the T/C (endpoint: mean tumor weight, dose: 100.0 mg/kg/injection, schedule: Q01DX011 (sc), vehicle: steriod suspending solution, higher = larger tumour) is 90 % of control.
On to `O=C(Nc1ccc(C(=O)O)cc1)Oc1ccc(N(CCCl)CCCl)cc1`, for which the T/C is 100 % of control (endpoint: median survival time, dose: 6.25 mg/kg/injection, schedule: Q01DX009 (ip), vehicle: Klucel (hydroxypropylcellulose) (HPC), higher = longer survival); 100 % of control (endpoint: median survival time, dose: 12.5 mg/kg/injection, schedule: Q01DX009 (ip), vehicle: Klucel (hydroxypropylcellulose) (HPC), higher = longer survival); 88 % of control (endpoint: median survival time, dose: 25.0 mg/kg/injection, schedule: Q01DX009 (ip), vehicle: Klucel (hydroxypropylcellulose) (HPC), higher = longer survival).
As for `CCCCC[C@H](O)/C=C/[C@@H]1[C@@H](C/C=C\CCCC(=O)O)[C@@H](O)C[C@H]1O`, the T/C by setting is: (endpoint: median survival time, dose: 2.5 mg/kg/injection, schedule: Q04DX003 (ip), vehicle: saline, higher = longer survival) 118 % of control; (endpoint: median survival time, dose: 5.0 mg/kg/injection, schedule: Q04DX003 (ip), vehicle: saline, higher = longer survival) 105 % of control; (endpoint: median survival time, dose: 10.0 mg/kg/injection, schedule: Q04DX003 (ip), vehicle: saline, higher = longer survival) 95 % of control; (endpoint: median survival time, dose: 20.0 mg/kg/injection, schedule: Q04DX003 (ip), vehicle: saline, higher = longer survival) 118 % of control; (endpoint: median survival time, dose: 40.0 mg/kg/injection, schedule: Q04DX003 (ip), vehicle: saline, higher = longer survival) 87 % of control; (endpoint: median survival time, dose: 80.0 mg/kg/injection, schedule: Q04DX003 (ip), vehicle: saline, higher = longer survival) 93 % of control. Moreover, the T/C (endpoint: median survival time, dose: 160.0 mg/kg/injection, schedule: Q04DX003 (ip), vehicle: saline, higher = longer survival) is 87 % of control and the T/C (endpoint: median survival time, dose: 320.0 mg/kg/injection, schedule: Q04DX003 (ip), vehicle: saline, higher = longer survival) is 106 % of control.
On to `O=C(O)c1ccc(-c2ccccc2)cc1`, for which the T/C is 61 % of control (endpoint: mean tumor weight, dose: 60.0 mg/kg/injection, schedule: Q01DX011 (ip), vehicle: carboxymethylcellulose (CMC), higher = larger tumour); 80 % of control (endpoint: mean tumor weight, dose: 90.0 mg/kg/injection, schedule: Q01DX011 (ip), vehicle: carboxymethylcellulose (CMC), higher = larger tumour); 65 % of control (endpoint: mean tumor weight, dose: 135.0 mg/kg/injection, schedule: Q01DX011 (ip), vehicle: carboxymethylcellulose (CMC), higher = larger tumour); 33 % of control and 42 % of control (endpoint: mean tumor weight, dose: 200.0 mg/kg/injection, schedule: Q01DX011 (ip), vehicle: carboxymethylcellulose (CMC), higher = larger tumour).
Regarding `COc1cc2c(c(OC)c1OC)-c1cc3c(cc1[C@@H](OC(C)=O)[C@@H]1COC(=O)[C@H]1C2)OCO3`, the T/C is 94 % of control (endpoint: median survival time, dose: 2.5 mg/kg/injection, schedule: Q01DX009 (ip), vehicle: Klucel (hydroxypropylcellulose) (HPC), higher = longer survival); 97 % of control (endpoint: median survival time, dose: 5.0 mg/kg/injection, schedule: Q01DX009 (ip), vehicle: Klucel (hydroxypropylcellulose) (HPC), higher = longer survival); 95 % of control (endpoint: median survival time, dose: 10.0 mg/kg/injection, schedule: Q01DX009 (ip), vehicle: Klucel (hydroxypropylcellulose) (HPC), higher = longer survival).
Regarding `NNc1nncc2ccccc12`, the T/C (endpoint: mean tumor weight, dose: 13.0 mg/kg/injection, schedule: Q01DX011 (ip), vehicle: carboxymethylcellulose (CMC), higher = larger tumour) is 111 % of control; the T/C (endpoint: mean tumor weight, dose: 20.0 mg/kg/injection, schedule: Q01DX011 (ip), vehicle: carboxymethylcellulose (CMC), higher = larger tumour) is 87 % of control; the T/C (endpoint: mean tumor weight, dose: 30.0 mg/kg/injection, schedule: Q01DX011 (ip), vehicle: carboxymethylcellulose (CMC), higher = larger tumour) is 110 % of control.
Turning to `N=[N+]=CC(=O)OCC(N)C(=O)O` (configuration not stated), the T/C (endpoint: mean tumor weight, dose: 2.5 mg/kg/injection, schedule: Q01DX011 (ip), vehicle: saline, higher = larger tumour) is 76 % of control and 81 % of control; the T/C (endpoint: mean tumor weight, dose: 10.0 mg/kg/injection, schedule: Q01DX011 (ip), vehicle: saline, higher = larger tumour) is 24 % of control and 31 % of control.
With `CC(=O)OC(C)(C)/C=C/C(=O)[C@](C)(O)[C@H]1[C@H](O)C[C@@]2(C)[C@@H]3CC=C4[C@@H](CC[C@H](O)C4(C)C)[C@]3(CO)C(=O)C[C@]12C`, the T/C (endpoint: mean tumor weight, dose: 0.57 mg/kg/injection, schedule: Q01DX011 (ip), vehicle: saline, higher = larger tumour) was 67 % of control.
